Read-outs that look alike come from different tables or passages of the source. Non-standard residues stand in square brackets, D forms with d. Residues, ends and D or L forms follow the SMILES beside them. Cha = N[C@@H](CC1CCCCC1)C(=O)O
What was measured:
[1] = test system: DR5; details: read-out: PADRE Class II Binding Affinities DR5
[2] = test system: DR7; details: read-out: PADRE Class II Binding Affinities DR7
[3] = test system: DQ3.1; details: for IC50: read-out: PADRE Class II Binding Affinities, Table VIII A

| SMILES | IC50 ([1]; Table VIII A) | IC50 ([2]; Table VIII A) | IC50 [3] | other results |
| --- | --- | --- | --- | --- |
| CC(C)C[C@H](NC(=O)[C@@H](NC(=O)[C@H](C)NC(=O)[C@@H](NC(=O)[C@H](C)NC(=O)[C@H](C)NC(=O)[C@H](CC1CCCCC1)NC(=O)[C@H](C)NC(=O)[C@@H](C)N)C(C)C)[C@@H](C)O)C(=O)N[C@@H](CCCCN)C(=O)N[C@@H](C)C(=O)N[C@@H](C)C(=O)N[C@H](C)C(N)=O [Peptide 906.21] (H-[dA]A[Cha]AAVATLKAA[dA]-NH2; N-terminus and C-terminus assumed) | 3.2 nM | 42.4 nM |  |  |
| CC(C)C[C@H](NC(=O)[C@@H](NC(=O)[C@H](C)NC(=O)[C@H](Cc1ccccc1)NC(=O)[C@H](C)NC(=O)[C@H](C)NC(=O)[C@H](CC1CCCCC1)NC(=O)[C@H](C)NC(=O)[C@@H](C)N)[C@@H](C)O)C(=O)N[C@@H](CCCCN)C(=O)N[C@@H](C)C(=O)N[C@@H](C)C(=O)N[C@H](C)C(N)=O [Peptide 906.22] (H-[dA]A[Cha]AAFATLKAA[dA]-NH2; N-terminus and C-terminus assumed) |  |  | 1880 nM | IC50 [1]: 3.4 nM; IC50 [2]: 59.4 nM |
| CC(C)C[C@H](NC(=O)[C@@H](NC(=O)[C@H](CCCCN)NC(=O)[C@H](C)NC(=O)[C@H](C)NC(=O)[C@H](C)NC(=O)[C@H](CC1CCCCC1)NC(=O)[C@H](C)NC(=O)[C@@H](C)N)[C@@H](C)O)C(=O)N[C@@H](CCCCN)C(=O)N[C@@H](C)C(=O)N[C@@H](C)C(=O)N[C@H](C)C(N)=O [Peptide 906.23] |  |  | 26.1 nM | IC50 [1]: 2.2 nM; IC50 [2]: 29.6 nM |
| CC(C)C[C@H](NC(=O)[C@@H](NC(=O)[C@H](CCC(=O)O)NC(=O)[C@H](C)NC(=O)[C@H](C)NC(=O)[C@H](C)NC(=O)[C@H](CC1CCCCC1)NC(=O)[C@H](C)NC(=O)[C@@H](C)N)[C@@H](C)O)C(=O)N[C@@H](CCCCN)C(=O)N[C@@H](C)C(=O)N[C@@H](C)C(=O)N[C@H](C)C(N)=O [Peptide 906.24] | 11.1 nM | 373 nM | 46.6 nM |  |
| CC(C)C[C@H](NC(=O)[C@@H](NC(=O)[C@H](CCC(N)=O)NC(=O)[C@H](C)NC(=O)[C@H](C)NC(=O)[C@H](C)NC(=O)[C@H](CC1CCCCC1)NC(=O)[C@H](C)NC(=O)[C@@H](C)N)[C@@H](C)O)C(=O)N[C@@H](CCCCN)C(=O)N[C@@H](C)C(=O)N[C@@H](C)C(=O)N[C@H](C)C(N)=O [Peptide 906.25] | 3 nM |  | 42.5 nM |  |
| C[C@H](NC(=O)[C@H](C)NC(=O)[C@H](C)NC(=O)[C@H](CC1CCCCC1)NC(=O)[C@H](C)NC(=O)[C@@H](C)N)C(=O)N[C@@H](C)C(=O)N[C@H](C(=O)N[C@@H](CCCCN)C(=O)N[C@@H](CCCCN)C(=O)N[C@@H](C)C(=O)N[C@@H](C)C(=O)N[C@H](C)C(N)=O)[C@@H](C)O [Peptide 906.29] (H-[dA]A[Cha]AAAATKKAA[dA]-NH2; N-terminus and C-terminus assumed) | 7.7 nM |  | 283 nM | Increase in DQ3.1 binding reactivity ([3]; relative to parent 760.57): no reactivity was gained |
| CC(C)C[C@H](NC(=O)[C@@H](NC(=O)[C@H](C)NC(=O)[C@H](C)NC(=O)[C@H](C)NC(=O)[C@H](C)NC(=O)[C@H](CC1CCCCC1)NC(=O)[C@H](C)NC(=O)[C@@H](C)N)[C@@H](C)O)C(=O)N[C@@H](CCC(=O)O)C(=O)N[C@@H](C)C(=O)N[C@@H](C)C(=O)N[C@H](C)C(N)=O [Peptide 906.35] | 10.5 nM |  | 39.5 nM |  |
| CC(C)C[C@H](NC(=O)[C@@H](NC(=O)[C@H](C)NC(=O)[C@H](C)NC(=O)[C@H](C)NC(=O)[C@H](C)NC(=O)[C@H](CC1CCCCC1)NC(=O)[C@H](C)NC(=O)[C@@H](C)N)[C@@H](C)O)C(=O)N[C@@H](CCC(N)=O)C(=O)N[C@@H](C)C(=O)N[C@@H](C)C(=O)N[C@H](C)C(N)=O [Peptide 906.36] | 8.3 nM |  | 23.7 nM |  |
| CC(C)C[C@H](NC(=O)[C@@H](NC(=O)[C@H](C)NC(=O)[C@H](C)NC(=O)[C@H](C)NC(=O)[C@H](C)NC(=O)[C@H](CC1CCCCC1)NC(=O)[C@H](C)NC(=O)[C@@H](C)N)[C@@H](C)O)C(=O)N[C@@H](Cc1ccccc1)C(=O)N[C@@H](C)C(=O)N[C@@H](C)C(=O)N[C@H](C)C(N)=O [Peptide 906.38] | 19.2 nM | 56.8 nM |  |  |
| CC(C)C[C@H](NC(=O)[C@@H](NC(=O)[C@H](C)NC(=O)[C@H](C)NC(=O)[C@H](C)NC(=O)[C@H](C)NC(=O)[C@H](CC1CCCCC1)NC(=O)[C@H](C)NC(=O)[C@@H](C)N)[C@@H](C)O)C(=O)N[C@@H](CCCCN)C(=O)N[C@@H](CCC(=O)O)C(=O)N[C@@H](C)C(=O)N[C@H](C)C(N)=O [Peptide 906.41] (H-[dA]A[Cha]AAAATLKEA[dA]-NH2; N-terminus and C-terminus assumed) |  | 252 nM |  |  |
| CC(C)C[C@H](NC(=O)[C@@H](NC(=O)[C@H](C)NC(=O)[C@H](C)NC(=O)[C@H](C)NC(=O)[C@H](C)NC(=O)[C@H](CC1CCCCC1)NC(=O)[C@H](C)NC(=O)[C@@H](C)N)[C@@H](C)O)C(=O)N[C@@H](CCCCN)C(=O)N[C@@H](CCC(N)=O)C(=O)N[C@@H](C)C(=O)N[C@H](C)C(N)=O [Peptide 906.42] (H-[dA]A[Cha]AAAATLKQA[dA]-NH2; N-terminus and C-terminus assumed) | 29.4 nM |  | 484 nM |  |
| CC(C)C[C@H](NC(=O)[C@@H](NC(=O)[C@H](C)NC(=O)[C@H](C)NC(=O)[C@H](C)NC(=O)[C@H](C)NC(=O)[C@H](CC1CCCCC1)NC(=O)[C@H](C)NC(=O)[C@@H](C)N)[C@@H](C)O)C(=O)N[C@@H](CCCCN)C(=O)N[C@@H](Cc1ccccc1)C(=O)N[C@@H](C)C(=O)N[C@H](C)C(N)=O [Peptide 906.44] (H-[dA]A[Cha]AAAATLKFA[dA]-NH2; N-terminus and C-terminus assumed) | 104 nM | 25 nM |  |  |
| CC(C)C[C@H](NC(=O)[C@@H](NC(=O)[C@H](C)NC(=O)[C@H](C)NC(=O)[C@H](C)NC(=O)[C@H](C)NC(=O)[C@H](CC1CCCCC1)NC(=O)[C@H](C)NC(=O)[C@@H](C)N)[C@@H](C)O)C(=O)N[C@@H](CCCCN)C(=O)N[C@@H](C)C(=O)N[C@@H](CCC(=O)O)C(=O)N[C@H](C)C(N)=O [Peptide 906.47] (H-[dA]A[Cha]AAAATLKAE[dA]-NH2; N-terminus and C-terminus assumed) | 25.5 nM |  | 60.2 nM |  |
| CC(C)C[C@H](NC(=O)[C@@H](NC(=O)[C@H](CC(N)=O)NC(=O)[C@H](C)NC(=O)[C@H](Cc1c[nH]c2ccccc12)NC(=O)[C@@H](NC(=O)[C@H](CC1CCCCC1)NC(=O)[C@H](CCCCN)NC(=O)[C@@H](C)N)C(C)C)[C@@H](C)O)C(=O)N[C@@H](CCCCN)C(=O)N[C@@H](C)C(=O)N[C@@H](C)C(=O)N[C@H](C)C(N)=O [Peptide 965.031] |  |  |  | IC50 ([1]; Table IX): 8.3 nM; IC50 ([1]; Table IX, listed as 965.032): 2.9 nM; IC50 ([2]; Table IX): 208 nM |
| CC(C)C[C@H](NC(=O)[C@@H](NC(=O)[C@H](Cc1c[nH]cn1)NC(=O)[C@H](C)NC(=O)[C@H](CCCCN)NC(=O)[C@@H](NC(=O)[C@H](CC1CCCCC1)NC(=O)[C@H](CCCCN)NC(=O)[C@@H](C)N)C(C)C)[C@@H](C)O)C(=O)N[C@@H](CCCCN)C(=O)N[C@@H](C)C(=O)N[C@@H](C)C(=O)N[C@H](C)C(N)=O [Peptide 965.071] |  |  |  | IC50 ([1]; Table IX): 10.5 nM; IC50 ([1]; Table IX, listed as 965.072): 4.8 nM; IC50 ([2]; Table IX, listed as 965.072): 556 nM |

From patent publication US6413935B1, “Induction of immune response against desired determinants” (priority 1993, dated 2002)
